From patent publication EP0821954A1, “Method for treating mental retardation” (ELI LILLY AND COMPANY, priority 1996, dated 1998)

What was measured:
m4 receptors = m4 receptors (Homo sapiens, UniProt P08173); format: cell-based; details: CHO m4 cells treated with pertussis toxin
5HT2C = target: T1, 5HT2C (Homo sapiens, UniProt P28335); test: 5HT2C receptor affinity; format: binding; details: 5HT2C receptor subtype
T1 sequence (P28335 33-458): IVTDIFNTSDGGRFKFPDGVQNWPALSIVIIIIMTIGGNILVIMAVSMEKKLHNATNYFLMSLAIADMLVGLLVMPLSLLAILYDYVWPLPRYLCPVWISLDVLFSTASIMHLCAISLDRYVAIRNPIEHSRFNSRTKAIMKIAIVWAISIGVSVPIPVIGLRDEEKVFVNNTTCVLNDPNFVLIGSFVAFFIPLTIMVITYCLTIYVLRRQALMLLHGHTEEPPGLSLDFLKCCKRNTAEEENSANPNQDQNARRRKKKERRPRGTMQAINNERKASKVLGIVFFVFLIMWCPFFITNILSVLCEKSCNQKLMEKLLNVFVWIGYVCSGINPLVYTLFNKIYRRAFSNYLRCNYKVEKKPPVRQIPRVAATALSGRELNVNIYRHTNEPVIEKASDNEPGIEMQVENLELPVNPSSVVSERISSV

[1] = target: muscarinic cholinergic receptors; test: 3H-oxotremorine-M binding study; details: inhibition of binding of 3H-oxotremorine-M; read-out: inhibition costant (Ki)

m4 receptors, sequence (P08173 whole entry): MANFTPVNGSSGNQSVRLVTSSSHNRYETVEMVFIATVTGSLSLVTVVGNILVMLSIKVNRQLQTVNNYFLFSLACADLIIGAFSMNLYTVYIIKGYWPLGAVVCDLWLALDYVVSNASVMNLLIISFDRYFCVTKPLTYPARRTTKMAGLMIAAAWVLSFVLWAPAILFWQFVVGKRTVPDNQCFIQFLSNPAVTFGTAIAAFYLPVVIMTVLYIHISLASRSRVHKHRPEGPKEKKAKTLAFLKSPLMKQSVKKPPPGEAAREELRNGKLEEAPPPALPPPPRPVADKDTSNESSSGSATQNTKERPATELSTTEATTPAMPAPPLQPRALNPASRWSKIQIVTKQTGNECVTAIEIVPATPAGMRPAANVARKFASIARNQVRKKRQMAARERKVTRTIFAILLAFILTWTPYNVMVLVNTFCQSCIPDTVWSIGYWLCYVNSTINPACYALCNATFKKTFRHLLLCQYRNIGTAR

Compound: CCCCCCOc1nsnc1C1=CCCN(C)C1 [Xanomeline, 3-(4-hexyloxy-1,2,5-thiadiazol-3-yl)-1,2,5,6-tetrahydro-1-methylpyridine]
- formation of cAMP (m4 receptors): efficaciously and potently stimulated the formation of cAMP
- Ki (5HT2C): 120 nM
- Ki [1]: 2 nM
